Data from patent US12552797B2, “Process for making (3-[cyclopropylethoxy(difluoro)methyl]-6-6[5-fluoro-6-(2,2,2-trifluoroethoxy-3-pyridyl]- [1,2,4]triazolo[4,3-a]pyrazine” (Praxis Precision Medicines, Inc., priority 2019, dated 2026).
Values after ≈ are worked out from the molar mass of the structure shown.

Columns and labels:
[1] = Kinetic solubility of amorphous solid dispersions (ASD) in FaSSIF; type: physicochemical
Method: Amorphous solid dispersion including Compound 1 was prepared with a mixture of Compound 1 and polymer. Nine ASD formulations were prepared using for screening 9 different polymers as the solid dispersant (PVPK30, PVPVA64, Soluplus, HPMC E5, HPMC ASMG, HPMC ASMF, HPMC ASHG, Eudragit EPO, Eudragit L100). About 10 mg of Compound 1 and 40 mg of corresponding polymer were weighed into 40-mL glass vials, and dissolved in 1 mL of MeOH/DCM (1:1, v/v) to prepare stock solution. […] The product after evaporation was dried under vacuum at 30° C. overnight and further characterized by appearance, PLM, XRPD and mDSC.
The nine ASD formulations were tested for kinetic solubility in FaSSIF at the concentration of 2 mg/mL. The experiment was run at 37° C. with the rate of 450 rpm. 0.5 mL of the mixture was taken out at each time point and centrifuged before running UPLC (a shortened runtime version of the described HPLC method was used to determine the Compound 1 levels).

[2] = Stability of suspension formulations in methylcellulose/Poloxamer 188 vehicles (appearance, concentration, purity, PSD); type: physicochemical; parameters: key to Appearance: *: homogeneous suspension initially, sedimentation occurred over time and returned to homogeneous after gentle agitation for ~1 min; #: viscous homogeneous suspension initially, sedimentation occurred over time and returned to homogeneous after gentle agitation for ~2 mins; details: 0.5% 400 cP MC, 0.2% Poloxamer 188
Method: As shown in Tables 9-11, various suspension formulations were tested for stability under different conditions.
To prepare a suspension weigh required amount of milled Compound 1 into a glass container and add corresponding volume of the vehicle. Thoroughly disperse the compound into a homogenous suspension using an overhead mixer at the final concentration target. Concentrations were prepared at 0.1 mg/mL and at 10 mg/mL. The suspension products were physically evaluated on visual appearance, concentration, purity and PSD.
The vehicles are prepared by dissolving 0.5% by weight of either 400 cP methylcellulose or 4000 cP methylcellulose and 0.2% Poloxamer 188. For the preserved suspensions, additionally 1.0% by volume of paraben preservative solution was dissolved into vehicle using an overhead mixer. The paraben preservative solution was prepared by dissolving 0.10 g methyl paraben, 0.025 g propylparaben in 9.875 g propylene glycol dissolved by mixing with a stir bar at room temperature for 1 hour.

[3] = target 0.1 mg/mL, 2-8° C., 14 D
[4] = target 0.1 mg/mL, 2-8° C., 28 D
[5] = target 0.1 mg/mL, 2-8° C., time 0
[6] = target 0.1 mg/mL, 25° C./60% RH, 2 M
[7] = target 0.1 mg/mL, 25° C./60% RH, 3 M
[8] = target 0.1 mg/mL, 25° C./60% RH, 7 D
[9] = target 0.1 mg/mL, 25° C./60% RH, 14 D
[10] = target 0.1 mg/mL, 25° C./60% RH, 28 D
[11] = target 0.1 mg/mL, 25° C./60% RH, time 0
[12] = target 10 mg/mL, 2-8° C., time 0
[13] = target 10 mg/mL, 25° C./60% RH, 2 M
[14] = target 10 mg/mL, 25° C./60% RH, 3 M
[15] = target 10 mg/mL, 25° C./60% RH, 7 D
[16] = target 10 mg/mL, 25° C./60% RH, 14 D
[17] = target 10 mg/mL, 25° C./60% RH, 28 D
[18] = target 10 mg/mL, 25° C./60% RH, time 0

With CCOC(F)(F)c1nnc2cnc(-c3cnc(OCC(F)(F)F)c(F)c3)cn12 [Compound 1, 3-(ethoxydifluoromethyl)-6-(5-fluoro-6-(2,2,2-trifluoroethoxy)pyridin-3-yl)-[1,2,4]triazolo[4,3-a]pyrazine] the solubility kinetic at 15 min ([1]; FaSSIF, thermodynamic from solid, 2 mg/mL, 37° C., 450 rpm, 15 min) was 5.7 µg/mL (≈ 14 µM), the solubility kinetic at 30 min ([1]; FaSSIF, thermodynamic from solid, 2 mg/mL, 37° C., 450 rpm, 30 min) was 8.1 µg/mL (≈ 19.9 µM) and the solubility kinetic at 60 min ([1]; FaSSIF, thermodynamic from solid, 2 mg/mL, 37° C., 450 rpm, 60 min) was 7.1 µg/mL (≈ 17.4 µM). The solubility kinetic at 120 min ([1]; FaSSIF, thermodynamic from solid, 2 mg/mL, 37° C., 450 rpm, 120 min) was 11.6 µg/mL (≈ 28.5 µM), the “Final pH” value ([1]; kinetic solubility test in FaSSIF) was 6.54 and the Appearance ([2]; target 0.1 mg/mL, 2-8° C., 2 M) was “*”. The Conc. ([2]; target 0.1 mg/mL, 2-8° C., 2 M) was 110 µg/mL, the “PSD (D90)” value ([2]; target 0.1 mg/mL, 2-8° C., 2 M) was 9.1 μm and the Purity ([2]; target 0.1 mg/mL, 2-8° C., 2 M) was 95.87%. For the same molecule, the Appearance ([2]; target 0.1 mg/mL, 2-8° C., 3 M) was “*”, the Conc. ([2]; target 0.1 mg/mL, 2-8° C., 3 M) was 110 µg/mL and the “PSD (D90)” value ([2]; target 0.1 mg/mL, 2-8° C., 3 M) was 12.7 μm. For the same molecule, the Purity ([2]; target 0.1 mg/mL, 2-8° C., 3 M) was 93.20%, the Appearance ([2]; target 0.1 mg/mL, 2-8° C., 7 D) was “*” and the Conc. ([2]; target 0.1 mg/mL, 2-8° C., 7 D) was 120 µg/mL. The “PSD (D90)” value ([2]; target 0.1 mg/mL, 2-8° C., 7 D) was 18.2 μm, the Purity ([2]; target 0.1 mg/mL, 2-8° C., 7 D) was 100% and the Appearance [2, 3] was “*”. For the same molecule, the Conc. [2, 3] was 110 µg/mL, the “PSD (D90)” value [2, 3] was 14.2 μm and the Purity [2, 3] was 100%. For the same molecule, the Appearance [2, 4] was “*”, the Conc. [2, 4] was 110 µg/mL and the “PSD (D90)” value [2, 4] was 15.4 μm. For the same molecule, the Purity [2, 4] was 100%, the Appearance [2, 5] was “*” and the Conc. [2, 5] was 110 µg/mL. The “PSD (D90)” value [2, 5] was 19.9 μm, the Purity [2, 5] was 100% and the Appearance [2, 6] was “*”. The Conc. [2, 6] was 110 µg/mL, the “PSD (D90)” value [2, 6] was 8.6 μm and the Purity [2, 6] was 95.87%. The Appearance [2, 7] was “*”, the Conc. [2, 7] was 110 µg/mL and the “PSD (D90)” value [2, 7] was 11.1 μm. For the same molecule, the Purity [2, 7] was 93.20%, the Appearance [2, 8] was “*” and the Conc. [2, 8] was 110 µg/mL. The “PSD (D90)” value [2, 8] was 19.9 μm, the Purity [2, 8] was 100.0% and the Appearance [2, 9] was “*”. For the same molecule, the Conc. [2, 9] was 110 µg/mL, the “PSD (D90)” value [2, 9] was 12.9 μm and the Purity [2, 9] was 100%. For the same molecule, the Appearance [2, 10] was “*”, the Conc. [2, 10] was 100 µg/mL and the “PSD (D90)” value [2, 10] was 8.7 μm. For the same molecule, the Purity [2, 10] was 100%, the Appearance [2, 11] was “*” and the Conc. [2, 11] was 110 µg/mL. For the same molecule, the “PSD (D90)” value [2, 11] was 19.9 μm, the Purity [2, 11] was 100.0% and the Appearance ([2]; target 10 mg/mL, 2-8° C., 2 M) was “*”. For the same molecule, the Conc. ([2]; target 10 mg/mL, 2-8° C., 2 M) was 10990 µg/mL, the “PSD (D90)” value ([2]; target 10 mg/mL, 2-8° C., 2 M) was 4.0 μm and the Purity ([2]; target 10 mg/mL, 2-8° C., 2 M) was 99.83%. The Appearance ([2]; target 10 mg/mL, 2-8° C., 3 M) was “*”, the Conc. ([2]; target 10 mg/mL, 2-8° C., 3 M) was 10130 µg/mL and the “PSD (D90)” value ([2]; target 10 mg/mL, 2-8° C., 3 M) was 3.6 μm. The Purity ([2]; target 10 mg/mL, 2-8° C., 3 M) was 99.83%, the Appearance ([2]; target 10 mg/mL, 2-8° C., 7 D) was “*” and the Conc. ([2]; target 10 mg/mL, 2-8° C., 7 D) was 10180 µg/mL. The “PSD (D90)” value ([2]; target 10 mg/mL, 2-8° C., 7 D) was 6.4 μm, the Purity ([2]; target 10 mg/mL, 2-8° C., 7 D) was 99.83% and the Appearance ([2]; target 10 mg/mL, 2-8° C., 14 D) was “*”. For the same molecule, the Conc. ([2]; target 10 mg/mL, 2-8° C., 14 D) was 10660 µg/mL, the “PSD (D90)” value ([2]; target 10 mg/mL, 2-8° C., 14 D) was 5.4 μm and the Purity ([2]; target 10 mg/mL, 2-8° C., 14 D) was 99.83%. The Appearance ([2]; target 10 mg/mL, 2-8° C., 28 D) was “*”, the Conc. ([2]; target 10 mg/mL, 2-8° C., 28 D) was 10560 µg/mL and the “PSD (D90)” value ([2]; target 10 mg/mL, 2-8° C., 28 D) was 3.8 μm. The Purity ([2]; target 10 mg/mL, 2-8° C., 28 D) was 99.83%, the Appearance [2, 12] was “*” and the Conc. [2, 12] was 10040 µg/mL. The “PSD (D90)” value [2, 12] was 5.6 μm, the Purity [2, 12] was 99.83% and the Appearance [2, 13] was “*”. The Conc. [2, 13] was 10470 µg/mL, the “PSD (D90)” value [2, 13] was 4.3 μm and the Purity [2, 13] was 99.83%. The Appearance [2, 14] was “*”, the Conc. [2, 14] was 10160 µg/mL and the “PSD (D90)” value [2, 14] was 3.5 μm. The Purity [2, 14] was 99.83%, the Appearance [2, 15] was “*” and the Conc. [2, 15] was 10480 µg/mL. For the same molecule, the “PSD (D90)” value [2, 15] was 6.3 μm, the Purity [2, 15] was 99.83% and the Appearance [2, 16] was “*”. The Conc. [2, 16] was 9850 µg/mL, the “PSD (D90)” value [2, 16] was 5.2 μm and the Purity [2, 16] was 99.83%. The Appearance [2, 17] was “*”, the Conc. [2, 17] was 10000 µg/mL and the “PSD (D90)” value [2, 17] was 4.6 μm. The Purity [2, 17] was 99.83%, the Appearance [2, 18] was “*” and the Conc. [2, 18] was 10040 µg/mL. The “PSD (D90)” value [2, 18] was 5.6 μm and the Purity [2, 18] was 99.83%.
